Patent publication US8088729B2 (priority 2005, dated 2012)
“And” between values parts separate entries of the source, which are not always exact repeats. Equal values may be shown once. Read-outs that look alike come from different tables or passages of the source.

What was measured:
MDCK cells [1] = assay: cells; assay type: cell-based, canine
MDCK cells [2] = assay: cells; assay type: cell-based, canine; remark: listed apart in the source
soluble gp120 (sgp120) = soluble gp120 (sgp120) (Human immunodeficiency virus type 1 group M subtype B, UniProt P03375)
[3] = tested on: T-lymphocytes (CEM-SS), PBMCs, macrophages; details: concentrations 1000-fold higher than the EC50 values
Washington/05/96 (H3N2) = assay type: cell-based, influenza A
Shandong/09/93 (H3N2) = assay type: cell-based, influenza A
CEM-SS cells = tested on: CEM-SS cells; design: direct cytotoxicity to the host cells: dose or concentration left out as unconfirmed
Vero76 cells [4] = assay type: cell-based
[5] = tested on: bovine IgG, α-acid glycoprotein, and aprotinin; assay type: binding
HIV = assay type: cell-based
From the text: Potent cytoprotective and anti-replicative activities of both natural and His-tagged recombinant Griffithsin were observed using the HIV-1RF strain of HIB in CEM-SS cells. […] In contrast, infectivity of cell-free virus was abolished after pretreatment and removal of Griffithsin.

sCD4 = sCD4 (Homo sapiens, UniProt P01730); assay type: binding
gp160 = gp160 (Human immunodeficiency virus type 1 group M subtype B, UniProt P03375); details: 100 ng protein standard, Griffithsin 100 ng/well; FIG. 5a
HCV RNA replicon = assay type: cell-based, Hepatitis C virus; details: for Inhibition of Viral Activity (% reduction Luc): 20 µM
HIV-1 RF = assay type: cell-based
Texas/36/91 (H1N1) = assay type: cell-based, influenza A
gp120 [6] = assay type: binding, HIV-1; details: 100 ng protein standard, Griffithsin 100 ng/well; FIG. 5a
gp120 [7] = molecular target: gp120 (Human immunodeficiency virus type 1 group M subtype B, UniProt P03378); assay type: binding, HIV-1; details: glycosylated and nonglycosylated HIV-1SF2 gp120, serial dilutions; FIG. 5b
Chain of gp120 (Human immunodeficiency virus type 1 group M subtype B, UniProt P03378) (P03378 32-509 limits assumed): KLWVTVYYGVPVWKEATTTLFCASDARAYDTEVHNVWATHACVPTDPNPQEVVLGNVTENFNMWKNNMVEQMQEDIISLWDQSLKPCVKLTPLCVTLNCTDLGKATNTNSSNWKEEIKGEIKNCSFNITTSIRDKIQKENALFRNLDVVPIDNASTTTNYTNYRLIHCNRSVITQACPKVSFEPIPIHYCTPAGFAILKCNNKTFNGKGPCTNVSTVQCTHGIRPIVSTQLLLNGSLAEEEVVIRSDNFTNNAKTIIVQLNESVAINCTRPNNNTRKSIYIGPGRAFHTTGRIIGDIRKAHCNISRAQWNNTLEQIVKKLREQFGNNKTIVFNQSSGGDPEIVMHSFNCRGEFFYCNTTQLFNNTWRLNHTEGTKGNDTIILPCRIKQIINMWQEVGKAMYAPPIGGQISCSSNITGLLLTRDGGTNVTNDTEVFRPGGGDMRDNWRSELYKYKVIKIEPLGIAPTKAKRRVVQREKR

[8] = tested on: cell-cell fusion of uninfected and chronically infected CEM-SS; assay type: cell-based
SARS virus [9] = tested on: SARS virus
[10] = molecular target: sgp120 binding of CD4 on CEM-SS cells (Human immunodeficiency virus type 1 group M subtype B, UniProt P03375); details: pretreatment of sgp120 with Griffithsin, Leu3a epitope availability
Beijing/262/95 (H1N1) = assay type: cell-based, influenza A
HIV-1 Ba-L = assay type: cell-based; details: HIV primary isolate Ba-L; macrophage; M-tropic; p24 ELISA; mean value
Huh7 ET cell line = details: for Cytotoxicity (% reduction in rRNA)*: single high-test concentration, compared to control cell
Vero76 cells [11] = assay type: cell-based; remark: listed apart in the source
HIV-1 ROJO = assay type: cell-based; details: HIV primary isolate ROJO; PBMC; T-tropic; supernatant RT activity; mean value
SARS virus [12] = tested on: SARS virus; remark: listed apart in the source
Zaire ebola virus = assay type: cell-based
HIV-1 ADA = assay type: cell-based; details: HIV primary isolate ADA; macrophage; M-tropic; p24 ELISA; mean value
Panama/2007/99 (H3N2) = assay type: cell-based, influenza A
SARS virus [13] = assay type: cell-based
HIV-1IIIB = assay type: cell-based; details: concentration-dependent manner
Los Angeles/2/87 (H3N2) = assay type: cell-based, influenza A
[14] = tested on: fusion of CD4 β-gal cells with HL 2/3 cells; assay type: cell-based
Sydney/5/97 (H3N2) = assay type: cell-based, influenza A
[15] = Canis lupus familiaris, MDCK, 72 h

Question: `NC(=O)c1ncn([C@@H]2O[C@H](CO)[C@@H](O)[C@H]2O)n1` [Ribavirin, reference compound] was tested. Which IC50 (MDCK cells [1]; [15]) did it give?
Answer: > 100 µg/mL

Question: And the IC50 (MDCK cells [2]; [15])?
Answer: > 100 µg/mL

Question: For Cyanovirin-N [reference compound], which “recognition of sgp120 by Griffithsin” value (soluble gp120 (sgp120); effect of cyanovirin-N) is on record?
Answer: interfered strongly

Question: What does the source list for Griffithsin?
Answer: toxicity against any of the cell lines [3]: did not show any toxicity; EC50 (Washington/05/96 (H3N2)): 0.016 µg/mL; EC50 (Shandong/09/93 (H3N2)): 0.018 µg/mL; direct cytotoxicity to the host cells (CEM-SS cells; highest tested concentrations): no significant evidence of direct cytotoxicity; direct cytotoxicity to the uninfected control cells (CEM-SS cells; highest tested concentrations of Griffithsin (78.3 to 783 nM)): little or no evidence of direct cytotoxicity; IC50 (Vero76 cells [4]): >100 µg/mL; IC50 in each assay (Vero76 cells [4]): greater than 100 μg/ml; interaction with other reference proteins (ELISA) [5]: little or no detectable interaction; infectivity of cell-free virus (HIV; after pretreatment of virus and removal of Griffithsin): abolished; susceptibility of pretreated uninfected CEM-SS cells to HIV infection (HIV; after the removal of Griffithsin): retained normal susceptibility; toxicity to the MDCK cell line (MDCK cell line): not found to be toxic; interaction with cCD4 (ELISA) (sCD4): little or no detectable interaction; interaction with gp160 (ELISA) (gp160): direct interaction; EC50 (anti-HCV) (HCV RNA replicon): 7.17 µg/mL; Inhibition of Viral Activity (% reduction Luc) (HCV RNA replicon): 60%; subsequent binding of cyanovirin-N to sgp120 (soluble gp120 (sgp120); Griffithsin pretreatment of sgp120): did not block; recognition of sgp120 by mAbs that recognize the C1 region (or V3 loop), and the mAb 17b (soluble gp120 (sgp120); effect of Griffithsin): little or no effect; recognition of sgp120 by the mAbs 48d and 2G12 (soluble gp120 (sgp120); effect of Griffithsin): interfered strongly; sCD4 and mAb IgG 1b12 binding to sgp120 (soluble gp120 (sgp120); effect of Griffithsin): moderately interfered; subsequent binding of Griffithsin to sgp120 (soluble gp120 (sgp120); sgp120 pretreated with sCD4 and the mAbs IgG1b12, 48d, and 2G12): did not block; anti-HIV activity, EC50 (HIV-1 RF; CEM-SS cells infected with HIV-1, FIG. 4): low nanomolar range; inhibition of virus-induced cell killing (HIV-1 RF; HIV-1RF in CEM-SS cells): concentration-dependent inhibition; supernatant reverse transcriptase and viral core antigen, p24 (HIV-1 RF; HIV-1RF in CEM-SS cells): concomitant decreases; EC50 (HIV-1 RF; HIV-1 laboratory strain RF, CEM-SS, T-tropic, XTT-tetrazolium, mean value): 0.043 nM; EC50 (Texas/36/91 (H1N1)): 0.06 µg/mL; interaction with gp120 (ELISA, absorbance at 405 nm) (gp120 [6]): direct interaction; binding of Griffithsin to sgp120 (gp120 [7]): both concentration-dependent and glycosylation-dependent; inhibition of cell-cell fusion [8]: concentration-dependent inhibition; IC50 (MDCK cells [1]): >10 µg/mL; EC50 (SARS virus [9]): 14 µg/mL; CD4-dependent sgp120 binding [10]: completely blocked; EC50 (Beijing/262/95 (H1N1)): 0.07 µg/mL; EC50 (HIV-1 Ba-L): 0.098 nM; toxicity level (cytotoxicity) (Huh7 ET cell line; highest test concentration of 10 μg/ml, FIG. 7): never reached a toxicity level; overall reduction in cell growth (Huh7 ET cell line; single high-test concentration of 20 μM, 72 hr): 25%; Cytotoxicity (% reduction in rRNA)* (Huh7 ET cell line; 72 hr): 74.5%; IC50 (Vero76 cells [11]): >100 µg/mL; EC50 (HIV-1 ROJO): 0.63 nM; EC90 (SARS virus [12]): 5 µg/mL; anti-ebola virus activity (Zaire ebola virus): low μg/ml range; EC50 (HIV-1 ADA): 0.5 nM; EC50 (Panama/2007/99 (H3N2)): 0.006 µg/mL; EC50 (SARS virus [13]): 4 µg/mL and 2 µg/mL; average EC50 (SARS virus [13]): 3 µg/mL; cell-free HIV-1IIIB fusion and infection of β-gal cells (HIV-1IIIB): inhibited; EC50 (Los Angeles/2/87 (H3N2)): 0.037 µg/mL; fusion of CD4 β-gal cells with HL 2/3 cells [14]: inhibited; EC50 (Sydney/5/97 (H3N2)): 0.016 µg/mL; IC50 (MDCK cells [2]): >10 µg/mL

Question: Which “Inhibition of Viral Activity (% reduction Luc)” value (HCV RNA replicon) does the source give for IFN-α [reference compound] here?
Answer: 98.6%

Question: What about the “Cytotoxicity (% reduction in rRNA)*” value (Huh7 ET cell line; 72 hr) of the same compound?
Answer: 98.4%
